This is an account of results in patent US5639469A, “Transmucosal delivery system” (Minnesota Mining and Manufacturing Company, priority 1994, dated 1997).

Where two headings read alike, the source gives them in different places.

Series [1] in a line: In vivo rat model: plasma anti Xa after buccal dosing of gel. Also noted: species or system rat (Wistar preferred). Particulars: Gel Formulation 11. The procedure:
The in vivo delivery of heparinic anticoagulant from a gel is determined using a rat model.
This method uses rats of 220 to 500 grams in weight. Wistar rats are the preferred strain. The rats are anesthetized with ether and then a 2 cm vertical incision is made first through the skin and then through the underlying muscle. The esophagus is isolated and tied off with a surgical ligature. The incision is closed with a surgical stapler. After surgery the rats are dosed with the gel by syringe administration with half of the total dose in each cheek. The rats are slightly reanesthesized for dosing and blood withdrawal. Blood samples are withdrawn at 0, 1, 2, 3 and 4 hours post dose. Heparinic anticoagulant concentrations in plasma are determined by an enzymatic method measuring anti Xa using a test kit (Stachrom™ Heparin from Diagnostica Stago, 9 rue des Freres Chausson, 92600 Asnieres-sur Seine, France). Results are reported as the number of anti Xa units per mL of plasma.
A formulation was prepared according to the method set forth above in connection with Gel Formulation 1, except that the sodium dodecyl sulfate was eliminated and the penetration enhancers shown in Table 15 below were incorporated at 2, 5 and/or 10 percent by weight based on the total weight of the gel formulation. Low molecular weight heparin (mean molecular weight from 3450 to 4950 daltons with anti Xa of 65 to 144 units/mg, Bioiberica, Barcelona, Spain) was incorporated at concentrations of 10, 25 and 50 mg of heparin per mL of gel. In vivo delivery was determined using the rat model described above. Each rat was dosed with 0.2 mL of gel formulation to provide the dose of heparin shown in Table 15, wherein "n" designates the number of rats studied. The values obtained were used to calculate the promoting effect (P for each formulation. The promoting effect was calculated using the equation given below: [formula] where: Cmax (H) is equal to the maximal anti Xa activity in plasma after heparin administration without enhancer and Cmax (H+E) is equal to the maximal anti Xa activity in plasma after heparin administration with the enhancer. The results are shown in Table 15 below.

Series [2] deals with Xa. Particulars: cited from earlier work.
The mark [3] stands for this setting: enhancer 5 wt%, heparin 5 mg/rat.

On to `CCCCCCCCCCCCCCCC(=O)OC(CC(=O)O)C[N+](C)(C)C` (racemic) [Palmitoyl DL carnitine chloride], for which the “promoting effect (P %)” value in series [1] (enhancer 10 wt%, heparin 10 mg/rat) is recorded as “+142%”. For `C[C@H](CCC(=O)NCCC[N+](C)(C)CCCS(=O)(=O)[O-])[C@H]1CC[C@H]2[C@@H]3[C@H](O)C[C@@H]4C[C@H](O)CC[C@]4(C)[C@H]3C[C@H](O)[C@]12C` [CHAPS], the “promoting effect (P %)” value in series [1] (setting [3]) was “+2%”. With `O=C1CCCN1` [Pyrrolidone], the “promoting effect (P %)” value in series [1] (setting [3]) was -31%. Turning to `C[C@H](CCC(=O)O)[C@H]1CC[C@H]2[C@@H]3CC[C@@H]4C[C@H](O)CC[C@]4(C)[C@H]3C[C@H](O)[C@]12C` [Sodium deoxycholate], the “promoting effect (P %)” value in series [1] (enhancer 2 wt%, heparin 5 mg/rat) is on record as “+117%”; in series [1] (setting [3]), “+122%”. As for `CCCCCCCCCCCCOS(=O)(=O)[O-].[Na+]` [Sodium dodecyl sulfate], the “promoting effect (P %)” value in series [1] (setting [3]) was “+189%”. Low molecular weight heparin: the “anti Xa” value in series [2] (mean molecular weight 3450 daltons, Bioiberica) is 138 units/mg; in series [2] (mean molecular weight 5300 daltons, Bioiberica), 144 units/mg; in series [2] (molecular weight 3949, Bioiberica), 113 units/mg.
